Columns and labels:
APEX1 [1] = assay: Effects of Tempol on gene expression in cardiac tissue of mice, chip-based microarray; type: in vivo
Experimental: To assess the effects of Tempol on gene expression, Tempol was administered to experimental mice at a dose of 5 mg/g of food from 14 months to 31 months after birth. Mice receiving the same food without the addition of Tempol were used as a negative control. At the age of 31 months, the experimental animals were sacrificed and the hearts were surgically removed. The expression of a broad spectrum of genes in the cardiac tissue was assessed using chip-based microarray technology. Such chips are well known in the art and are widely used to assess gene expression.

APEX1 [2] = assay: Treating human subjects with Tempol, serum level of APEX1 following treatment; type: in vivo; conditions: 2000 mg per day for 180 days
Experimental: (§1) A 70-kilogram human subject over the age of 65 is identified as having, or known to have, or suspected of having an increased expression level of APEX1. The human subject is administered a dose of 2000 mg of Tempol (or another nitroxide antioxidant) per day for 180 days. This may be administered in a single dose, or may be administered as a number of smaller doses over a 24-hour period: for example, four 500-mg doses at […]. Following treatment, the serum level of APEX1, is decreased.
as §1, with “subject” for “subject over the age of 65”
as §1, with “65 and having a cardiovascular disease” for “65”, “for an increased expression level of APEX1. Or a 70-kilogram human subject over the age of 65 is” for “as having, or”, “have a cardiovascular disease and/or” for “have, or suspected of having an”
as §1, with “at risk” for “over the age”, “developing colorectal cancer” for “65”, “for increased expression level of APEX1. Or a 70-kilogram human subject is” for “as having, or”, “be at risk” for “have, or suspected”, “developing colorectal cancer and/or have” for “having an”
(§2) A 70-kilogram human subject at risk of developing an autoimmune disease (e.g., rheumatoid arthritis) is identified for increased expression level of APEX1. Or a 70-kilogram human subject is known to be at risk of developing an autoimmune disease and/or have increased expression level of APEX1. The human subject is administered a dose of 2000 mg of Tempol (or another nitroxide antioxidant) per day for 180 days. This may be administered in a single dose, or may be administered as a number of smaller doses over a 24-hour period: for example, four 500-mg doses at […]. Following treatment, the serum level of APEX1, is decreased.
as §1, with “The” for “A 70-kilogram human subject over the age of 65 is identified as having, or known to have, or suspected of having an increased expression level of APEX1. The”
as §2, with “a neurodegenerative” for “an autoimmune”, “Parkinson's Disease)” for “rheumatoid arthritis)”, “decreased. […]” for “decreased.”

CC1(C)CC(O)CC(C)(C)N1[O] [Tempol, 4-hydroxy-2,2,6,6-tetramethylpiperidine-1-oxyl]
Fold change (APEX1 expression) (APEX1 [1]; Tempol 5 mg/g of food from 14 months to 31 months after birth, cardiac tissue at 31 months, vs mice on same food without Tempol): −1.23 | expression of APEX1 in the cardiac tissue (APEX1 [1]; Tempol 5 mg/g of food from 14 to 31 months after birth, microarray): statistically significant decrease in expression | serum level of APEX1 (APEX1 [2]; Example 2: 70-kilogram human subject over the age of 65 with increased expression level of APEX1): decreased | serum level of APEX1 (APEX1 [2]; Example 3: 70-kilogram human subject with increased expression level of APEX1): decreased | serum level of APEX1 (APEX1 [2]; Example 4: human subject over the age of 65 having a cardiovascular disease): decreased | serum level of APEX1 (APEX1 [2]; Example 5: human subject at risk of developing colorectal cancer): decreased | serum level of APEX1 (APEX1 [2]; Example 6: human subject at risk of developing an autoimmune disease (e.g., rheumatoid arthritis)): decreased | serum level of APEX1 (APEX1 [2]; Example 7: human subject at risk of developing a condition due to aging): decreased | serum level of APEX1 (APEX1 [2]; Example 8: human subject at risk of developing a neurodegenerative disease (e.g., Parkinson's Disease)): decreased | serum level of APEX1 (APEX1 [2]; Example 9: human subject having an infection (e.g., bacterial, fungal, or viral)): decreased
